According to US11219625B2, “Inhibitors of N-linked glycosylation and methods using same” (YALE UNIVERSITY, priority 2015, dated 2022):

Tests used:
OST [1] = assay: Free and peptide glycans in streptolysin-O permeabilized CHO cells; type: cell-based; conditions: NGI-1 5 μM
Procedure: Fluorophore assisted carbohydrate electrophoresis (FACE) was performed as previously described (Gao, et al., Glycobiology 2002, 12, 353-360; Gao, et al., J Biol Chem 2005, 280, 17901-17909). Control (Ac-Gln-Tyr-Thr-CONH2) and acceptor (Ac-Asn-Tyr-Thr-CONH2) peptides were used for permeabilized cell experiments. Metabolic labeling of Hela cells, transfection of prosaposin (pSAP) and steroid hormone binding globulin (SHBG) vectors, and knockdown of SIT3A and STT3B to monitor N-linked glycosylation knockdown were performed as described (Shrimal, et al., J Cell Biol 2013, 201, 81-95). Western blot analysis was performed as previously described (Bennett, et al., Transl Oncol 2013, 6, 382-391). […]
The OST is an ER resident multi-subunit complex that cleaves LLOs and transfers the oligosaccharide to a protein encoded N-linked glycosylation consensus sequence (NXT/S). […] Both enzymatic products of the OST, free glycans and protein glycans, were therefore determined with and without NGI-1 treatment using optimized conditions in streptolysin-O permeabilized CHO cells (FIG. 2C). Addition of a control peptide without the N-linked glycosylation consensus sequence (QYT) led to readily detectable levels of free glycans (left panel), while addition of an acceptor peptide containing the consensus sequence (NYT) followed by PNGase treatment led to detection of cleaved peptide glycans (right panel). […]

OST [2] = target: T1, OST (Canis lupus familiaris, UniProt F1PJP5); assay: Cell free OST inhibition, canine pancreas microsomes with in vitro translation of pSAP mRNA; type: biochemical; conditions: FIG. 2D
T1 construct: rabbit reticulocyte lysate translation system supplemented with canine pancreas rough microsomes (cRM); from tissue; host or cells: canine pancreas rough microsomes
T1 sequence (F1PJP5 1-705): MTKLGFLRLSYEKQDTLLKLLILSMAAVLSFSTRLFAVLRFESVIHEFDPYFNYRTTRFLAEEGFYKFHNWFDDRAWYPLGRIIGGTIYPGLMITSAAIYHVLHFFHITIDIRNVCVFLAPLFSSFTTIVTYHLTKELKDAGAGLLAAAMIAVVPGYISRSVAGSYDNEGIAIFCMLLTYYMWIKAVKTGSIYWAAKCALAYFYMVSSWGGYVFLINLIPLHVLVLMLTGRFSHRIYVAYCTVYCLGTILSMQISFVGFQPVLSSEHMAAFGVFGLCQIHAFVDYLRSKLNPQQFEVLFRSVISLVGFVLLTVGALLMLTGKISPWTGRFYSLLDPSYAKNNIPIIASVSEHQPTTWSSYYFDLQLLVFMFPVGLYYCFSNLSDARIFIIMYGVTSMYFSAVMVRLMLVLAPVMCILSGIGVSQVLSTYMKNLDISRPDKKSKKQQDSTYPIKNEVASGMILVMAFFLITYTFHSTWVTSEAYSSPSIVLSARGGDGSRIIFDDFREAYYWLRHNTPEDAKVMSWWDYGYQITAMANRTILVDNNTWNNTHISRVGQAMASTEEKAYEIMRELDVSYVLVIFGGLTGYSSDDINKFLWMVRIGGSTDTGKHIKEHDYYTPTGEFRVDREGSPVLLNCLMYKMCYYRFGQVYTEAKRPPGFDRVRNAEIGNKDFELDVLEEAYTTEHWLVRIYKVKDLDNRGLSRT
Procedure: FIGS. 2A-2I illustrate the finding that NGI-1 blocks OST function. FIG. 2A illustrates the western blots of glycosylated luciferase (Luc) after treatment with 1 μM tunicmaycin (Tn) and 10 μM NGI-1 in CHO-Lec15 and CHO-Lec35 cells with stable expression of ER-LucT. FIG. 2B is a […] illustrating FACE analysis of lipid linked oligosaccharides (LLOs). FIG. 2C is a series of western blots illustrating the effects of NGI-1 (5 μM) on free oligosaccharides (left panel) and N-linked glycans cleaved from peptides with Peptide-N-Glycosidase F (right panel). Carbohydrate size is indicated with glucose markers (G4-G7). FIG. 2D is a western blot illustrating cell free inhibition of the OST using a rabbit reticulocyte lysate translation system supplemented with canine pancreas rough microsomes (cRM). […] FIGS. 2G-2H: Dose response and quantitation of NGI-1 effect on pSAP (squares) and SHBG glycosylation (circles). […]
The OST is an ER resident multi-subunit complex that cleaves LLOs and transfers the oligosaccharide to a protein encoded N-linked glycosylation consensus sequence (NXT/S). […] Both enzymatic products of the OST, free glycans and protein glycans, were therefore determined with and without NGI-1 treatment using optimized conditions in streptolysin-O permeabilized CHO cells (FIG. 2C). […]

Cc1cnc(NC(=O)c2cc(S(=O)(=O)N(C)C)ccc2N2CCCC2)s1 [NGI-1, 5-(N,N-Dimethylsulfamoyl)-N-(5-methylthiazol-2-yl)-2-(pyrrolidin-1-yl)benzamide]
production of free glycans and cleaved peptide glycans (OST [1]): substantially reduced the production of both free and cleaved glycans
inhibition of pSAP N-linked glycosylation, cell free (OST [2]): dose dependent inhibition of pSAP N-linked glycosylation
